Results: patent publication US12240859B2, “Turbinmicin compounds, compositions and uses thereof” (Wisconsin Alumni Research Foundation, priority 2019, dated 2025)
In brackets after ≈: the same amount, converted by molar mass.

Assays:
C. albicans [1] = experiment: In vitro MIC susceptibility testing, broth microdilution; format: cell-based, Candida albicans; conditions: Candida albicans
Description: In vitro MIC susceptibility testing. […]. Amphotericin B was used as a positive control and the MICs range were 0.25-1.5 μg/mL. Six untreated media controls were included on each plate. The plates were incubated at 33° C. for 72 h. The MICs were determined as the lowest concentration that inhibited visible growth. The MICs were read at 24, 48, and 72 hours, respectively. […]

C. albicans [2] = experiment: Time kill experiments; format: cell-based, Candida albicans; conditions: C. albicans (K-1, FIG. 6B), 1x to 16x MIC, 0-48 h
Description: FIGS. 6A-C show time-kill curves for turbinmicin against (6A) C. auris B11211, (6B) C. albicans K-1, and (6C) C. glabrata 4720.
Time Kill Experiments. Fresh Candida colonies from an overnight growth were added to normal saline and the turbidity was adjusted to a 0.6 transmittance at 530 nm to provide a standard suspension (1*10^6 CFU/mL). This suspension was diluted with RPMI 1640 medium buffered with MOPS and a standard compound stock solution to achieve a starting inoculum of approximately 10^5 CFU/ml. Each 20 mL culture (RPMI 1640 medium buffered with MOPS) was incubated at 35° C. with constant shaking, and 0.1 mL samples were withdrawn for the determination of fungal counts at 0, 2, 4, 6, 8, 24 and 48 h. Colony counts were determined by viable counts on sabouraud agar plate (SDA) after incubation for 48 h. Growth control for each organism were prepared without antifungal and run in parallel.

A. fumigatus = experiment: Time kill experiments; format: cell-based, Aspergillus fumigatus; conditions: A. fumigatus as printed in b90 (FIG. 6C), 0-48 h
C. auris B11211 = experiment: Neutropenic murine disseminated candidiasis model, C. auris B11211; format: in vivo, Candida auris; conditions: mice
Excerpt: (§1) Animals. Six-week-old ICR Swiss specific-pathogen-free female mice weighing 23 to 27 g were used for all studies. Animals were maintained in accordance with the American Association for Accreditation of Laboratory Care criteria. Animal studies were approved by the University of Wisconsin Animal Research Committee.
C. auris B11211 and C. albicans K1 Infection model. A neutropenic, murine, disseminated candidiasis model was used for the treatment studies. […]
C auris B11211 was subcultured on SDA 24 h prior to infection. […] Fungal counts of the inoculum determined by viable counts of C. auris on SDA were 6.25±0.03 log10 CFU ml^−1, respectively. […] Results were expressed as the mean number of CFU per kidney for three mice. […]
(§2) Disseminated infection with C. auris B11211 infection was produced by injection of 0.1 ml of the inoculum via the lateral tail vein 2 h prior to the start of antifungal therapy. […] The results are expressed as the mean and standard deviation of the log10 CFU/kidney from three mice. […]
(§3) Results. A multi-dose experiment with C. auris B11211 infection murine model was evaluated, and four doses (1, 2, 4, and 8 mg/kg) of turbinmicin were administered to mice every six hours over a 24 h period; turbinmicin was administered by intraperitoneal route.

C. albicans K1 = experiment: Neutropenic murine disseminated candidiasis model, C. albicans K1; format: in vivo, Candida albicans; conditions: mice
Excerpt: as §1
C. auris B11211 and C. albicans K1 Infection model. A neutropenic, murine, disseminated candidiasis model was used for the treatment studies. Mice were rendered neutropenic (neutrophils, <100/mm^3) by injecting them with cyclophosphamide (Mead Johnson Pharmaceuticals, Evansville, IN) subcutaneously 4 days (150 mg/kg) and 1 day (100 mg/kg) before infection, and 2 days after infection (100 mg/kg). Previous studies have shown neutropenia (<100 mm^3) in this model for the 96-h study period.
as §2, §3

Compound: C/C=C/C=C/C=C/C(=O)OC1C=CCC2C(=O)c3c(O)c4c5c(c3OC12)OCOC5CC1C(=O)c2cc(C)[nH]c(=O)c2C(=O)C41O (centres unmarked) [Turbinmicin, turbinmicin]
- MIC (C. albicans [1]; strain 98-17): 0.25 mg/L (≈ 0.398 µM)
- MIC (C. albicans [1]; strain 98-210): 0.25 mg/L (≈ 0.398 µM)
- MIC (C. albicans [1]; strain 580): 0.5 mg/L (≈ 0.797 µM)
- MIC (C. albicans [1]; strain K1 (K-1)): 0.25 mg/L (≈ 0.398 µM)
- MIC (C. albicans [1]; strain SN250): 0.25 mg/L (≈ 0.398 µM)
- time-kill activity (C. albicans [2]): Fungacidal activity was observed
- time-kill activity (A. fumigatus): Fungacidal activity was observed
- CFU/kidney reduction (C. auris B11211; multi-dose 1, 2, 4 and 8 mg/kg intraperitoneal every six hours over 24 h, at 24 h, dose-dependent): > 3 log 10 CFU/kidney
- antifungal effect, single dose (C. auris B11211; single intraperitoneal dose 8, 16, 32, 64 mg/kg, 6 h, data not shown): failed to reveal a significant antifungal effect
- CFU/kidney reduction (C. albicans K1; multi-dose 1, 2, 4 and 8 mg/kg intraperitoneal over 24 hours): > 1 log 10 CFU/kidney
- in vivo efficacy, single dose (C. albicans K1; single intraperitoneal dose 16, 32, 48 and 64 mg/kg, 6 h): showed in vivo efficacy
